{
  "source": "ChEMBL document CHEMBL4334464",
  "about": "“From Phenylthiazoles to Phenylpyrazoles: Broadening the Antibacterial Spectrum toward Carbapenem-Resistant Bacteria” (J Med Chem, 2019)",
  "key": {"Escherichia coli [1]": {"test_system": "Escherichia coli", "test": "Antimicrobial activity against Escherichia coli JW55031 harboring deltatolC mutant after 18 to 20 hrs in aerobic condition by CLSI protocol based broth microdilution assay", "assay_type": "functional"}, "Staphylococcus aureus [2]": {"test_system": "Staphylococcus aureus", "test": "Antibacterial activity against methicillin-resistant Staphylococcus aureus NRS384-USA300 clinical isolates after 18 to 20 hrs in aerobic condition by CLSI protocol based broth microdilution assay", "assay_type": "functional"}, "[3]": {"test": "Efflux ratio of apparent permeability across basolateral to apical side over apical to basolateral side in human Caco2 cells after 2 hrs by LC/MS/MS analysis", "assay_type": "ADME, cell-based", "conditions": "Caco-2"}, "[4]": {"test": "Apparent permeability across basolateral to apical side in human Caco2 cells after 2 hrs by LC/MS/MS analysis", "assay_type": "ADME, cell-based", "conditions": "Caco-2"}, "[5]": {"test_system": "Staphylococcus epidermidis", "test": "Antibacterial activity against Staphylococcus epidermidis NRS101 after 18 to 20 hrs in aerobic condition by CLSI-based broth microdilution assay", "assay_type": "functional"}, "Enterococcus faecium": {"test_system": "Enterococcus faecium", "test": "Antibacterial activity against vancomycin-resistant Enterococcus faecium ATCC 700221 clinical isolates after 18 to 20 hrs in aerobic condition by CLSI-based broth microdilution assay", "assay_type": "functional"}, "Staphylococcus aureus [6]": {"test_system": "Staphylococcus aureus", "test": "Antibacterial activity against vancomycin-resistant Staphylococcus aureus isolate 12 after 18 to 20 hrs in aerobic condition by CLSI-based broth microdilution assay", "assay_type": "functional"}, "Staphylococcus aureus [7]": {"test_system": "Staphylococcus aureus", "test": "Antibacterial activity against Methicillin-sensitive Staphylococcus aureus NRS107 clinical isolates after 18 to 20 hrs in aerobic condition by CLSI protocol based broth microdilution assay", "assay_type": "functional"}, "Listeria monocytogenes": {"test_system": "Listeria monocytogenes", "test": "Antibacterial activity against Listeria monocytogenes ATCC 19111 after 18 to 20 hrs in aerobic condition by CLSI-based broth microdilution assay", "assay_type": "functional"}, "Staphylococcus aureus [8]": {"test_system": "Staphylococcus aureus", "test": "Antibacterial activity against Methicillin-resistant Staphylococcus aureus NRS123-USA400 clinical isolates after 18 to 20 hrs in aerobic condition by CLSI protocol based broth microdilution assay", "assay_type": "functional"}, "Staphylococcus aureus [9]": {"test_system": "Staphylococcus aureus", "test": "Antibacterial activity against linezolid-resistant/Methicillin-resistant Staphylococcus aureus NRS119 clinical isolates after 18 to 20 hrs in aerobic condition by CLSI protocol based broth microdilution assay", "assay_type": "functional"}, "Staphylococcus aureus [10]": {"test_system": "Staphylococcus aureus", "test": "Antibacterial activity against Methicillin-sensitive Staphylococcus aureus ATCC 6538 clinical isolates after 18 to 20 hrs in aerobic condition by CLSI protocol based broth microdilution assay", "assay_type": "functional"}, "Staphylococcus aureus [11]": {"test_system": "Staphylococcus aureus", "test": "Antibacterial activity against vancomycin-resistant Staphylococcus aureus isolate 10 after 18 to 20 hrs in aerobic condition by CLSI-based broth microdilution assay", "assay_type": "functional"}, "Escherichia coli [12]": {"test_system": "Escherichia coli", "test": "Antibacterial activity against Escherichia coli BW25113 clinical isolates after 18 to 20 hrs in aerobic condition by CLSI-based broth microdilution assay", "assay_type": "functional"}, "Klebsiella pneumoniae [13]": {"test_system": "Klebsiella pneumoniae", "test": "Antibacterial activity against Klebsiella pneumoniae BAA-1706 clinical isolates after 18 to 20 hrs in aerobic condition by CLSI-based broth microdilution assay", "assay_type": "functional"}, "Acinetobacter baumannii [14]": {"test_system": "Acinetobacter baumannii", "test": "Antibacterial activity against Acinetobacter baumannii ATCC 19606 clinical isolates after 18 to 20 hrs in aerobic condition by CLSI-based broth microdilution assay", "assay_type": "functional", "conditions": "ATCC 19606 = CIP 70.34 = JCM 6841"}, "Pseudomonas aeruginosa [15]": {"test_system": "Pseudomonas aeruginosa", "test": "Antibacterial activity against Pseudomonas aeruginosa ATCC 15442 clinical isolates after 18 to 20 hrs in aerobic condition by CLSI-based broth microdilution assay", "assay_type": "functional"}, "Escherichia coli [16]": {"test_system": "Escherichia coli", "test": "Antibacterial activity against carbapenem-resistant Escherichia coli BAA-2452 clinical isolates after 18 to 20 hrs in aerobic condition by CLSI-based broth microdilution assay", "assay_type": "functional"}, "Acinetobacter baumannii [17]": {"test_system": "Acinetobacter baumannii", "test": "Antibacterial activity against carbapenem-resistant Acinetobacter baumannii ATCC BAA 1605 clinical isolates after 18 to 20 hrs in aerobic condition by CLSI-based broth microdilution assay", "assay_type": "functional"}, "Klebsiella pneumoniae [18]": {"test_system": "Klebsiella pneumoniae", "test": "Antibacterial activity against carbapenem-resistant Klebsiella pneumoniae ATCC BAA-2146 clinical isolates after 18 to 20 hrs in aerobic condition by CLSI-based broth microdilution assay", "assay_type": "functional"}, "Pseudomonas aeruginosa [19]": {"test_system": "Pseudomonas aeruginosa", "test": "Antibacterial activity against carbapenem-resistant Pseudomonas aeruginosa ATCC 1744 clinical isolates after 18 to 20 hrs in aerobic condition by CLSI-based broth microdilution assay", "assay_type": "functional"}, "Escherichia coli [20]": {"test_system": "Escherichia coli", "test": "Antibacterial activity against carbapenem-resistant Escherichia coli BAA-2469 clinical isolates after 18 to 20 hrs in aerobic condition by CLSI-based broth microdilution assay", "assay_type": "functional"}, "Klebsiella pneumoniae [21]": {"test_system": "Klebsiella pneumoniae", "test": "Antibacterial activity against carbapenem-resistant Klebsiella pneumoniae ATCC BAA-1705 clinical isolates after 18 to 20 hrs in aerobic condition by CLSI-based broth microdilution assay", "assay_type": "functional"}},
  "note": "Active and inactive are the calls of the source. No cut-off for these calls is given here.",
  "data": [
    {"compound": "C/C(=N\\NC(=N)N)c1cnn(-c2ccc(C#CC3CC3)cc2)c1C", "values": [
      {"measurement": "MIC", "setting": "Escherichia coli [1]", "result": 8, "unit": "µg/mL"},
      {"measurement": "MIC", "setting": "Staphylococcus aureus [2]", "result": 8, "unit": "µg/mL"}
    ]},
    {"compound": "C/C(=N\\NC1=NCCN1)c1cnn(-c2ccc(C#CC3(O)CCCCC3)cc2)c1C", "values": [
      {"measurement": "MIC", "setting": "Escherichia coli [1]", "result": 32, "unit": "µg/mL"},
      {"measurement": "MIC", "setting": "Staphylococcus aureus [2]", "result": 64, "unit": "µg/mL"}
    ]},
    {"compound": "CC(=O)C(=CN(C)C)C(C)=O", "values": [
      {"measurement": "efflux ratio at 2 h", "setting": "[3]", "result": "> 2"},
      {"measurement": "Papp B→A at 2 h", "setting": "[4]", "result": 1.2, "unit": "×10⁻⁶ cm/s"}
    ]},
    {"compound": "CCN(CC)CC#Cc1ccc(-n2ncc(/C(C)=N/NC(=N)N)c2C)cc1", "values": [
      {"measurement": "MIC", "setting": "Escherichia coli [1]", "result": 128, "unit": "µg/mL"},
      {"measurement": "MIC", "setting": "Staphylococcus aureus [2]", "result": 128, "unit": "µg/mL"}
    ]},
    {"compound": "CC(=O)NC[C@H]1CN(c2ccc(N3CCOCC3)c(F)c2)C(=O)O1", "note": "[LINEZOLID]", "values": [
      {"measurement": "MIC", "setting": "[5]", "result": "≤ 0.5", "unit": "µg/mL"},
      {"measurement": "MIC", "setting": "Enterococcus faecium", "result": 1, "unit": "µg/mL"},
      {"measurement": "MIC", "setting": "Staphylococcus aureus [6]", "result": 1, "unit": "µg/mL"},
      {"measurement": "MIC", "setting": "Staphylococcus aureus [7]", "result": 1, "unit": "µg/mL"},
      {"measurement": "MIC", "setting": "Listeria monocytogenes", "result": 1, "unit": "µg/mL"},
      {"measurement": "MIC", "setting": "Staphylococcus aureus [2]", "result": 1, "unit": "µg/mL"},
      {"measurement": "MIC", "setting": "Staphylococcus aureus [8]", "result": 1, "unit": "µg/mL"},
      {"measurement": "MIC", "setting": "Staphylococcus aureus [9]", "result": 32, "unit": "µg/mL"},
      {"measurement": "MIC", "setting": "Staphylococcus aureus [10]", "result": 1, "unit": "µg/mL"},
      {"measurement": "MIC", "setting": "Staphylococcus aureus [11]", "result": 1, "unit": "µg/mL"}
    ]},
    {"compound": "C/C(=N\\NC1=NCCN1)c1cnn(-c2ccc(C#Cc3ccccc3)cc2)c1C", "values": [
      {"measurement": "MIC", "setting": "Escherichia coli [1]", "result": 4, "unit": "µg/mL"},
      {"measurement": "MIC", "setting": "Staphylococcus aureus [2]", "result": 4, "unit": "µg/mL"}
    ]},
    {"compound": "C/C(=N\\NC(=N)N)c1sc(-c2ccc(C#CC3CCCC3)cc2)nc1C", "values": [
      {"measurement": "Activity", "setting": "Escherichia coli [1]", "result": "inactive"},
      {"measurement": "Activity", "setting": "Escherichia coli [12]", "result": "inactive"},
      {"measurement": "Activity", "setting": "Klebsiella pneumoniae [13]", "result": "inactive"},
      {"measurement": "Activity", "setting": "Acinetobacter baumannii [14]", "result": "inactive"},
      {"measurement": "Activity", "setting": "Pseudomonas aeruginosa [15]", "result": "inactive"}
    ]},
    {"compound": "CN(C)c1cc(NC(=O)CNC(C)(C)C)c(O)c2c1C[C@H]1C[C@H]3[C@H](N(C)C)C(O)=C(C(N)=O)C(=O)[C@@]3(O)C(O)=C1C2=O", "note": "[TIGECYCLINE]", "values": [
      {"measurement": "MIC", "setting": "Escherichia coli [16]", "result": 0.25, "unit": "µg/mL"},
      {"measurement": "MIC", "setting": "Acinetobacter baumannii [17]", "result": 1, "unit": "µg/mL"},
      {"measurement": "MIC", "setting": "Klebsiella pneumoniae [18]", "result": 4, "unit": "µg/mL"},
      {"measurement": "MIC", "setting": "Pseudomonas aeruginosa [19]", "result": 8, "unit": "µg/mL"},
      {"measurement": "MIC", "setting": "Escherichia coli [20]", "result": 0.5, "unit": "µg/mL"},
      {"measurement": "MIC", "setting": "Klebsiella pneumoniae [21]", "result": 1, "unit": "µg/mL"}
    ]},
    {"compound": "CCCC#Cc1ccc(-n2ncc(/C(C)=N/NC3=NCCN3)c2C)cc1", "values": [
      {"measurement": "MIC", "setting": "Escherichia coli [1]", "result": 16, "unit": "µg/mL"},
      {"measurement": "MIC", "setting": "Staphylococcus aureus [2]", "result": 8, "unit": "µg/mL"}
    ]},
    {"compound": "COLISTIN", "values": [
      {"measurement": "MIC", "setting": "Escherichia coli [16]", "result": 0.06, "unit": "µg/mL"},
      {"measurement": "MIC", "setting": "Acinetobacter baumannii [17]", "result": 0.25, "unit": "µg/mL"},
      {"measurement": "MIC", "setting": "Klebsiella pneumoniae [18]", "result": 0.25, "unit": "µg/mL"},
      {"measurement": "MIC", "setting": "Pseudomonas aeruginosa [19]", "result": 1, "unit": "µg/mL"},
      {"measurement": "MIC", "setting": "Escherichia coli [20]", "result": 0.06, "unit": "µg/mL"},
      {"measurement": "MIC", "setting": "Klebsiella pneumoniae [21]", "result": 0.125, "unit": "µg/mL"}
    ]},
    {"compound": "C/C(=N\\NC(=N)N)c1cnn(-c2ccc(C#CC(C)(C)O)cc2)c1C", "values": [
      {"measurement": "MIC", "setting": "Escherichia coli [1]", "result": 128, "unit": "µg/mL"},
      {"measurement": "MIC", "setting": "Staphylococcus aureus [2]", "result": 128, "unit": "µg/mL"}
    ]},
    {"compound": "C/C(=N\\NC(=N)N)c1cnn(-c2ccc(C#CC(C)(C)C)cc2)c1C", "values": [
      {"measurement": "MIC", "setting": "Escherichia coli [1]", "result": 8, "unit": "µg/mL"},
      {"measurement": "MIC", "setting": "Staphylococcus aureus [2]", "result": 8, "unit": "µg/mL"}
    ]},
    {"compound": "C[C@@H](O)[C@H]1C(=O)N2C(C(=O)O)=C(SCCNC=N)C[C@H]12", "note": "[IMIPENEM ANHYDROUS]", "values": [
      {"measurement": "MIC", "setting": "Escherichia coli [16]", "result": 32, "unit": "µg/mL"},
      {"measurement": "MIC", "setting": "Acinetobacter baumannii [17]", "result": 32, "unit": "µg/mL"},
      {"measurement": "MIC", "setting": "Klebsiella pneumoniae [18]", "result": 32, "unit": "µg/mL"},
      {"measurement": "MIC", "setting": "Pseudomonas aeruginosa [19]", "result": 16, "unit": "µg/mL"},
      {"measurement": "MIC", "setting": "Escherichia coli [20]", "result": 32, "unit": "µg/mL"},
      {"measurement": "MIC", "setting": "Klebsiella pneumoniae [21]", "result": 32, "unit": "µg/mL"}
    ]},
    {"compound": "C/C(=N\\NC1=NCCN1)c1cnn(-c2ccc(C#CC3CC3)cc2)c1C", "values": [
      {"measurement": "MIC", "setting": "Escherichia coli [1]", "result": 32, "unit": "µg/mL"},
      {"measurement": "MIC", "setting": "Staphylococcus aureus [2]", "result": 16, "unit": "µg/mL"}
    ]}
  ]
}
